Test results as given in patent US20250296971A1, “GASTRIC INHIBITORY PEPTIDE RECEPTOR LIGANDS” (priority 2021, published 2025).
*1 amine or outer side, *2 acyl side, *3 side chain or, on linkers, in order; H or OH if unused. Where a SMILES comes first, the peptide text is derived from it. Bridges are numbered along the chain shown (N, C = ends). [ ]: non-standard residue; d: D form. The star is where a group is joined. X5 = NC(=O)[C@H](CCCCNC(=O)CN1CCN(CC(=O)O)CCN(CC(=O)O)CCN(CC(=O)O)CC1)NC(=O)CCC(=O)NCCCOCCOCCOCCCN*; X13 = O=C(CN1CCN2CCN3CCN(CC1)CC(=O)[O][Lu]([O]C(=O)C2)[O]C(=O)C3)NCCCOCCOCCOCCCN*; X3 = O=C(O)CN1CCN(CC(=O)O)CCN(CC(=O)NCCCOCCOCCOCCCN*)CCN(CC(=O)O)CC1; NH(1-deoxy-D-glucityl) = OC[C@@H](O)[C@@H](O)[C@H](O)[C@@H](O)CN*; DOTA = O=C(O)CN1CCN(CC(=O)O)CCN(CC(=O)*)CCN(CC(=O)O)CC1; Maleimide(3,4-diyl) = O=C1NC(=O)C([*:2])=C1[*:1]; Trp(5-Br) = N[C@@H](Cc1c[nH]c2ccc(Br)cc12)C(=O)O; Trp(5-Cl) = N[C@@H](Cc1c[nH]c2ccc(Cl)cc12)C(=O)O; Pyridine(2,6-diCH2) = c1cc(C[*:1])nc(C[*:2])c1; Pro(4R-NH2) = N[C@H]1CN[C@H](C(=O)O)C1; 1Nal = N[C@@H](Cc1cccc2ccccc12)C(=O)O; mXylylene = c1cc(C[*:1])cc(C[*:2])c1; Glutaryl = O=C(CCCC(=O)[*:2])[*:1]; X6 = c1cc(CSCCN[*:2])nc(C[*:1])c1; X7 = c1cc(CSCCN[*:2])cc(C[*:1])c1; Hyp = O=C(O)[C@@H]1C[C@@H](O)CN1; X1 = O=C(CN1CCC(N[*:1])CC1)[*:2]; pS = N[C@@H](COP(=O)(O)O)C(=O)O; Suc = O=C(CCC(=O)[*:2])[*:1]; hCys = N[C@@H](CCS)C(=O)O; Api = NC1(C(=O)O)CCNCC1; Thp = NC1(C(=O)O)CCOCC1; AEEA = NCCOCCOCC(=O)O; Aib = CC(C)(N)C(=O)O; Sar = CNCC(=O)O

What follows are compounds tested against T1, GIPR (CHO-K1-hGIPR cells) (Homo sapiens, UniProt P48546) (assay: FACS binding assay). Conditions: competition with 20 nM GIP-057, 4° C. for 1 hour, read-out: pIC50 Category (converted).
T1 construct: host or cells: CHO-K1
T1 sequence (P48546 22-466): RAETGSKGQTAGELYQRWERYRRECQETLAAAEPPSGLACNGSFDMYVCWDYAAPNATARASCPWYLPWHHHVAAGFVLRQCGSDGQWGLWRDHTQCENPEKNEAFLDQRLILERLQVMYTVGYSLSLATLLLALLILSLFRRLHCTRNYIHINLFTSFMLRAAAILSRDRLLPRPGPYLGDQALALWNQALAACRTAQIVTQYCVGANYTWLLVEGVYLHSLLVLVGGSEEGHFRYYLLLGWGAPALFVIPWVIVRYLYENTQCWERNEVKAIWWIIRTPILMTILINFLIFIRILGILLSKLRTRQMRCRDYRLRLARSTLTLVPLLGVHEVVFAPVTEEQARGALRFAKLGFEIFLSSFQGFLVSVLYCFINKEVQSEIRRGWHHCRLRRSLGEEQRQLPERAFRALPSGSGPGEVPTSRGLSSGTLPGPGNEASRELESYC
Summary of the method: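 Median fluorescence in the APC channel, measured on washed CHO-K1 cells overexpressing human GIPR, was fitted by four-parameter logistic regression against peptide concentration to yield EC50 or IC50 values. Secondary labelling used APC-streptavidin (1 μg/mL, 30 min, ice).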
Compound `CC[C@H](C)[C@@H]1NC(=O)[C@H](CC(C)C)NC(=O)C(C)(C)NC(=O)[C@@H](NC(=O)[C@H](CC(C)C)NC(=O)[C@H](CCC(=O)O)NC(=O)[C@@H]2CCCN2C(=O)[C@H](Cc2c[nH]c3ccccc23)NC(=O)[C@H](Cc2c[nH]c3ccccc23)NC(=O)CCC(=O)O)CSCc2cccc(c2)CSC[C@@H](C(N)=O)NC1=O` [GIP-259, HO-Succinyl-Trp-Trp-Pro-Glu-Leu-[Cys(3MeBn)-Aib-Leu-Ile-Cys]-NH2] (Suc-WWPELC[Aib]LIC-NH2; linker 6-10 via mXylylene) has an IC50 of 10 to 79.4 nM. In the case of `CC[C@H](C)[C@@H]1NC(=O)[C@H](CC(C)C)NC(=O)C2(CCOCC2)NC(=O)[C@@H](NC(=O)[C@@H](CC(C)C)NC(=O)[C@H](CCC(=O)O)NC(=O)[C@@H]2C[C@@H](O)CN2C(=O)[C@H](Cc2c[nH]c3ccc(Cl)cc23)NC(=O)[C@H](Cc2c[nH]c3ccccc23)NC(=O)[C@H](CC(=O)O)NC(C)=O)CCSC2=C(SC[C@@H](C(N)=O)NC1=O)C(=O)NC2=O` [GIP-362, Ac-Asp-Trp-5Clw-Hyp-Glu-leu-[Hcy(mli)-Thp-Leu-Ile-Cys]-NH2] (Ac-DW[Trp(5-Cl)][Hyp]E[dL][hCys][Thp]LIC-NH2; linker 7-11 via Maleimide(3,4-diyl)), the IC50 is reported as 10 to 79.4 nM. Work on `CC[C@H](C)[C@@H]1NC(=O)[C@H](CC(C)C)NC(=O)[C@H](C)NC(=O)[C@@H](NC(=O)[C@H](CC(C)C)NC(=O)[C@H](CCC(=O)O)NC(=O)[C@@H]2CCCN2C(=O)[C@@H](Cc2c[nH]c3ccccc23)NC(=O)[C@H](Cc2c[nH]c3ccccc23)NC(=O)[C@H](CC(=O)O)NC(=O)[C@H](Cc2ccc(O)cc2)NC(=O)[C@@H](N)CCSC)CSCc2cccc(c2)CSC[C@@H](C(N)=O)NC1=O` [GIP-329, H-Met-Tyr-Asp-Trp-trp-Pro-Glu-Leu-[Cys(3MeBn)-Ala-Leu-Ile-Cys]-NH2] (H-MYDW[dW]PELCALIC-NH2; linker 9-13 via mXylylene) yielded an IC50 of over 1000 nM. Compound `CC[C@H](C)[C@@H]1NC(=O)[C@H](CC(C)C)NC(=O)C(C)(C)NC(=O)[C@@H](NC(=O)[C@H](CC(C)C)NC(=O)[C@H](CCC(=O)O)NC(=O)[C@@H]2CCCN2C(=O)[C@H](Cc2c[nH]c3ccccc23)NC(=O)[C@H](Cc2cccc3ccccc23)NC(=O)[C@H](CC(=O)O)NC(C)=O)CSCc2cccc(c2)CSC[C@@H](C(=O)NCCCOCCOCCOCCCNC(=O)CCC(=O)N[C@@H](CCCCNC(=O)CN2CCN(CC(=O)O)CCN(CC(=O)O)CCN(CC(=O)O)CC2)C(N)=O)NC1=O` [GIP-293, Ac-Asp-1Ni-Trp-Pro-Glu-Leu-[Cys(3MeBn)-Aib-Leu-Ile-Cys]-Ttds-Lys(DOTA)-NH2] (Ac-D[1Nal]WPELC[Aib]LIC-X5; linker 7-11 via mXylylene) has an IC50 of over 1000 nM.

Same assay, conditions: competition with 20 nM GIP-057, 4° C., 1 hour, read-out: pIC50 Category (converted)
`CC[C@H](C)[C@@H]1NC(=O)[C@H](CC(C)C)NC(=O)C2(CCOCC2)NC(=O)[C@@H](NC(=O)[C@@H](CC(C)C)NC(=O)[C@H](COP(=O)(O)O)NC(=O)[C@@H]2C[C@@H](O)CN2C(=O)[C@H](Cc2c[nH]c3ccc(Cl)cc23)NC(=O)[C@H](Cc2c[nH]c3ccccc23)NC(=O)[C@H](CC(=O)O)NC(C)=O)CSCc2cccc(n2)CSC[C@@H](C(N)=O)NC1=O` [GIP-208, Ac-Asp-Trp-5Clw-Hyp-Pse-leu-[Cys(2Lut)-Thp-Leu-Ile-Cys]-NH2] (Ac-DW[Trp(5-Cl)][Hyp][pS][dL]C[Thp]LIC-NH2; linker 7-11 via Pyridine(2,6-diCH2)) gave an IC50 of under 10 nM. Compound `CC[C@H](C)[C@@H]1NC(=O)[C@H](CC(C)C)NC(=O)C(C)(C)NC(=O)[C@@H](NC(=O)[C@@H](CC(C)C)NC(=O)[C@H](CCC(=O)O)NC(=O)[C@@H]2CCCN2C(=O)[C@H](Cc2c[nH]c3ccc(Cl)cc23)NC(=O)[C@H](Cc2c[nH]c3ccccc23)NC(=O)[C@H](CC(=O)O)NC(=O)CCC(=O)NCCCOCCOCCOCCCNC(=O)CN2CCN(CC(=O)O)CCN(CC(=O)O)CCN(CC(=O)O)CC2)CSCc2cccc(n2)CSCCNC1=O` [GIP-090, DOTA-Ttds-Asp-Trp-5Clw-Pro-Glu-leu-[Cys(2Lut)-Aib-Leu-Ile-AET]] ({X3-Suc}-DW[Trp(5-Cl)]PE[dL]C[Aib]LI; linker 7-C via X6) has an IC50 of under 10 nM. Work on `CC[C@H](C)[C@@H]1NC(=O)[C@H](CC(C)C)NC(=O)C2(CCOCC2)NC(=O)[C@@H](NC(=O)[C@@H](CC(C)C)NC(=O)[C@H](CCC(=O)O)NC(=O)[C@@H]2C[C@@H](N)CN2C(=O)[C@H](Cc2c[nH]c3ccc(Cl)cc23)NC(=O)[C@H](Cc2c[nH]c3ccccc23)NC(=O)[C@H](CC(=O)O)NC(=O)COCCOCCNC(=O)[C@@H](CCC(=O)NC[C@H](O)[C@@H](O)[C@H](O)[C@H](O)CO)NC(=O)CN2CCN(CC(=O)O)CCN(CC(=O)O)CCN(CC(=O)O)CC2)CSCc2cccc(n2)CSC[C@@H](C(=O)NC2CCN(CC(=O)N[C@H](CCC(=O)NC[C@H](O)[C@@H](O)[C@H](O)[C@H](O)CO)C(N)=O)CC2)NC1=O` [GIP-020, DOTA-glu(AGLU)-O2Oc-Asp-Trp-5Clw-Tap-Glu-leu-[Cys(2Lut)-Thp-Leu-Ile-Cys]-APAc-glu(AGLU)-NH2] ({DOTA}-[dE](NH(1-deoxy-D-glucityl))[AEEA]DW[Trp(5-Cl)][Pro(4R-NH2)]E[dL]C[Thp]LIC[X1][dE](NH(1-deoxy-D-glucityl))-NH2; linker 9-13 via Pyridine(2,6-diCH2)) yielded an IC50 of under 10 nM.

Same assay, conditions: pIC50 Category, competition with 20 nM GIP-057, 4° C., 1 hour
`CC[C@H](C)[C@@H]1NC(=O)[C@H](CC(C)C)NC(=O)C(C)(C)NC(=O)[C@@H](NC(=O)[C@@H](CC(C)C)NC(=O)[C@H](CCC(=O)O)NC(=O)CN(C)C(=O)[C@H](Cc2c[nH]c3ccc(Cl)cc23)NC(=O)[C@H](Cc2c[nH]c3ccccc23)NC(=O)[C@H](CC(=O)O)NC(=O)CCC(=O)NCCCOCCOCCOCCCNC(=O)CN2CCN3CCN4CCN(CC2)CC(=O)[O][Lu]([O]C(=O)C3)[O]C(=O)C4)CSCc2cccc(c2)CSCCNC1=O` [GIP-160, LuDOTA-Ttds-Asp-Trp-5Clw-Nmg-Glu-leu-[Cys(3MeBn)-Aib-Leu-Ile-AET]] ({X13-Suc}-DW[Trp(5-Cl)][Sar]E[dL]C[Aib]LI; linker 7-C via X7) showed an IC50 of under 10 nM. `CC[C@H](C)[C@@H]1NC(=O)[C@H](CC(C)C)NC(=O)C2(CCN(C(=O)CN3CCN(CC(=O)O)CCN(CC(=O)O)CCN(CC(=O)O)CC3)CC2)NC(=O)[C@@H](NC(=O)[C@@H](CC(C)C)NC(=O)[C@H](CCC(=O)O)NC(=O)[C@@H]2C[C@@H](N)CN2C(=O)[C@H](Cc2c[nH]c3ccc(Br)cc23)NC(=O)[C@H](Cc2c[nH]c3ccccc23)NC(=O)[C@H](CC(=O)O)NC(=O)CN2CCC(NC(=O)CCCC(=O)NC[C@H](O)[C@@H](O)[C@H](O)[C@H](O)CO)CC2)CSCc2cccc(n2)CSC[C@@H](C(=O)NC2CCN(CC(=O)N[C@H](CCC(=O)NC[C@H](O)[C@@H](O)[C@H](O)[C@H](O)CO)C(N)=O)CC2)NC1=O` [GIP-014, AGLU-Glutar-APAc-Asp-Trp-5Brw-Tap-Glu-leu-[Cys(2Lut)-Apc(DOTA)-Leu-Ile-Cys]-APAc-glu(AGLU)-NH2] ({NH(1-deoxy-D-glucityl)-Glutaryl}-[X1]DW[Trp(5-Br)][Pro(4R-NH2)]E[dL]C[Api](DOTA)LIC[X1][dE](NH(1-deoxy-D-glucityl))-NH2; linker 8-12 via Pyridine(2,6-diCH2)) showed an IC50 of under 10 nM.
